Measurements: ChEMBL document CHEMBL1201862, “PubChem BioAssay data set” (2004)
Calls of active or inactive are those of the source.

Tests used:
[1] = target: Nonstructural protein 1 (Influenza A virus, UniProt Q194T2); type: functional, Influenza A virus (A/California/07/2009(H1N1))
[2] = fluconazole-exposed Candida albicans growth modulators – fluorescence, retest, confirmation (AID 2467); type: functional, cell-based
[3] = target: Matrix metalloproteinase-14 (Homo sapiens, UniProt P50281); assay: Dose Response confirmation of uHTS hits for a small molecule inhibitors of MT1-MMP activation in a fluorescence assay set 2.; type: functional
[4] = potency of ADAM10 substrate cleavage blockers – biochemical, QFRET, dose response (AID 743254);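 also: ADAM10 enzyme with the DM2 quenched FRET peptide as substrate; EDANS fluorescence gain as the protease cuts the substrate; inhibitor potency against ADAM10 proteolytic activity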
[5] = target: Disintegrin and metalloproteinase domain-containing protein 17 (Homo sapiens, UniProt P78536); assay: inhibition of ADAM17 substrate cleavage – biochemical, quenched FRET substrate, counter-screen for ADAM10 exosite inhibitor project, dose response (AID 743253)
Disintegrin and metalloproteinase domain-containing protein 17, sequence (P78536 whole entry, the tested form may be a part): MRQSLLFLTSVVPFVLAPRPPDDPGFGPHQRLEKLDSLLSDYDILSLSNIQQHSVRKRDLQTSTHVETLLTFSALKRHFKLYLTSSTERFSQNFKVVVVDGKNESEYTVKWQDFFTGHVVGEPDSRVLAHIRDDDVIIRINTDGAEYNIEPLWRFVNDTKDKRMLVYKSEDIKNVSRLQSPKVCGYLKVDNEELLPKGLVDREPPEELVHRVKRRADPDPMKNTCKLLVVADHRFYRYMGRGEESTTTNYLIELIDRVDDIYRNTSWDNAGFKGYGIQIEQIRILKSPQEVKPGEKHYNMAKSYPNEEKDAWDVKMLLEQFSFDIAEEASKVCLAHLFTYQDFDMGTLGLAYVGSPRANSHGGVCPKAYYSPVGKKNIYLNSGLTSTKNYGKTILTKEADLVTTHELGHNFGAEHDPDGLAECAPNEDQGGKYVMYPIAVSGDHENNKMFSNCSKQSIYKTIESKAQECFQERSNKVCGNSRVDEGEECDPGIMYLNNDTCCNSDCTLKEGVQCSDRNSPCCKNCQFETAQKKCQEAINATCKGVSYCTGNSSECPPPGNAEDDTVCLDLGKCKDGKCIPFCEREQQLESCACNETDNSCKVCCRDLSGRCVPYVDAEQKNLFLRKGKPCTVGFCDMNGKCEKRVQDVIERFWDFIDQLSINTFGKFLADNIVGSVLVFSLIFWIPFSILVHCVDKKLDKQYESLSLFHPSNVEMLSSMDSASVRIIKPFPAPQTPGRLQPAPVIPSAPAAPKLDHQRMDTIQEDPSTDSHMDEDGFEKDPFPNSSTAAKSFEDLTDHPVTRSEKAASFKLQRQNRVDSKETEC

[6] = NIH-3T3 fibroblast cytotoxicity, dose response, cytotoxicity control, cell-based, fluorescence, Alamar Blue, secondary assay (AID 2327); type: functional;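 also: NIH-3T3 mouse fibroblasts cultured with fluconazole at 8 µg/mL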
[7] = target: Botulinum neurotoxin type F (Clostridium botulinum, UniProt P30996); assay: High-throughput multiplex microsphere dose response for inhibitors of toxin protease, specifically Botulinum neurotoxin light chain F protease, compounds from Cherry Pick 02.; type: functional; conditions: read-out: EC50_MICROM
Botulinum neurotoxin type F, sequence (P30996 1-436 limits assumed): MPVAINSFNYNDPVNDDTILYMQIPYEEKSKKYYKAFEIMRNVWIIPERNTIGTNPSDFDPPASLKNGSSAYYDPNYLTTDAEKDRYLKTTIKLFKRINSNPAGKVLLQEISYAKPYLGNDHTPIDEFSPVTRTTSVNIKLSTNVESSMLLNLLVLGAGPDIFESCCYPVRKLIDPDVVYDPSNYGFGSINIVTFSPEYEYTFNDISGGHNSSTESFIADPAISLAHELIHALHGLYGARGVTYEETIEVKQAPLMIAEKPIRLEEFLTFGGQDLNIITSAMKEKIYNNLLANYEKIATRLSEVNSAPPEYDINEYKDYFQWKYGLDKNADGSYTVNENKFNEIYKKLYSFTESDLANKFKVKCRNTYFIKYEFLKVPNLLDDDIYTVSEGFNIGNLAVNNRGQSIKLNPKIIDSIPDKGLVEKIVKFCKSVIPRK

[8] = target: T1, DNA repair and recombination protein RAD54-like (Homo sapiens, UniProt Q92698); assay: RAD54 Holliday junction migration blockers – biochemical, fluorescence, cherry-picked samples, dose series, confirmation (AID 651657); type: functional
T1 sequence (Q92698 whole entry): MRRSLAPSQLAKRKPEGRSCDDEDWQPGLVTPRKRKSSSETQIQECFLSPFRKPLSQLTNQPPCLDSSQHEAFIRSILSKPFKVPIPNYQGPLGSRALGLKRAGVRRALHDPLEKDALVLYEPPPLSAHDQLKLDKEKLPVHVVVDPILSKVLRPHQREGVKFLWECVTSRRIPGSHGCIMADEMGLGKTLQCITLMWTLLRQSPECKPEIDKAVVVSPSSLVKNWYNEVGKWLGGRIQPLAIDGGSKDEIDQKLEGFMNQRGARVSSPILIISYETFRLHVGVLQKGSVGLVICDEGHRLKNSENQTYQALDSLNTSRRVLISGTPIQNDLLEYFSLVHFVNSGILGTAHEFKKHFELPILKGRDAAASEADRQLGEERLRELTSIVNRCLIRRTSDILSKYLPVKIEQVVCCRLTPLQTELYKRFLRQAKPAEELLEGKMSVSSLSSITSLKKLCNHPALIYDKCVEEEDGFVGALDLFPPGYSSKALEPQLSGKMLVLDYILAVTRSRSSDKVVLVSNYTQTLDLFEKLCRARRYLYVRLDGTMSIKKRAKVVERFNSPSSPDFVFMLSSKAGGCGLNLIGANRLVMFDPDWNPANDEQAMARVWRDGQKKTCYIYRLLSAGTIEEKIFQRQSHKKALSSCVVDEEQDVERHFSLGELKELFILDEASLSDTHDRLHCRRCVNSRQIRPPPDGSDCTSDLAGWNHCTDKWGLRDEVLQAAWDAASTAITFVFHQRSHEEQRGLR

[9] = cytotoxicity toward MDA-MB-231 breast cancer cells – cell-based, CellTiter-Glo luminescence, cherry-pick, cytotoxicity control for RAD54 inhibitor project, dose response (AID 651692); type: functional
[10] = target: T2, DNA repair protein RAD52 homolog (Homo sapiens, UniProt P43351); type: functional, biochemical
T2 sequence (P43351 whole entry): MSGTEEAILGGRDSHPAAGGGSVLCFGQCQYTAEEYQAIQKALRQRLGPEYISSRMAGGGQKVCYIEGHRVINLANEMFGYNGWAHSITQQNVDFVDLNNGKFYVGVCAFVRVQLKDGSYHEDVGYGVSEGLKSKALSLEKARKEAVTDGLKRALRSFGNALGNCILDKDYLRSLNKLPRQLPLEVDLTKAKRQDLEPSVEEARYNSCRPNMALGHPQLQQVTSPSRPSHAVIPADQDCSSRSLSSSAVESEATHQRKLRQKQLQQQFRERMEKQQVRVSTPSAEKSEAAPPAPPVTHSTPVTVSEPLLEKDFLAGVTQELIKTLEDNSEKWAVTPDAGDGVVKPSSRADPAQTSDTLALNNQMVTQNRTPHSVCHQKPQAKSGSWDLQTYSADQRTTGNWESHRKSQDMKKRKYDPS

[11] = target: T3, Probable nicotinate-nucleotide adenylyltransferase (Staphylococcus aureus (strain N315), UniProt P65502); type: functional, Staphylococcus aureus subsp. aureus N315; conditions: read-out: IC50_Mean;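 as to IC50 Mean: confirmatory dose-response retesting of NadD inhibitor hits first found in an ultra-high-throughput screen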
T3 sequence (P65502 whole entry): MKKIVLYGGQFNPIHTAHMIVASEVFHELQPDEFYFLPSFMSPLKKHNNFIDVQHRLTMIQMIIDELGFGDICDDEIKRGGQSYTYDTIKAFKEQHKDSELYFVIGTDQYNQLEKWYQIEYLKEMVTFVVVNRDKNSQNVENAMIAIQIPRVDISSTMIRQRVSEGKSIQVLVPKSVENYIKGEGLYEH

[12] = target: T3, Probable nicotinate-nucleotide adenylyltransferase; type: functional, Staphylococcus aureus subsp. aureus N315
[13] = system: Vero; assay: viability loss in Vero cells – cell-based, plate reader, cherry-pick samples, cytotoxicity control, dose response (AID 687020); type: functional; conditions: Chlorocebus sabaeus
[14] = system: A549; assay: viability loss in A549 cells – cell-based, plate reader, cherry-pick samples, cytotoxicity control, dose response (AID 687028); type: functional; conditions: Homo sapiens
[15] = target: Beta-galactosidase (Escherichia coli, UniProt Q8VNN2); assay: Dose response counterscreen for EBI2 assay utilizing the enzyme, b-galactosidase.; type: functional
[16] = Counterscreen for activators of the function of SWI/SNF related, matrix associated, actin dependent regulator of chromatin, subfamily a, member 2 (SMARCA2, BRM): Luminescence-based cell-based high throughput dose response assay to identify non-selective compounds using the VP16 reporter assay.; type: functional
[17] = target: SWI/SNF-related matrix-associated actin-dependent regulator of chromatin subfamily A member 2 (Homo sapiens, UniProt P51531); assay: Luminescence-based cell-based high throughput dose response assay to identify activators of the function of SWI/SNF related, matrix associated, actin dependent regulator of chromatin, subfamily a, member 2 (SMARCA2, BRM).; type: functional
[18] = cells; type: functional, cell-based
[19] = target: T4, Long-chain-fatty-acid--AMP ligase FadD28 (Mycobacterium tuberculosis, UniProt P9WQ59); assay: Fluorescence polarization aasay to screen for inhibitors that compete for the binding of FadD28 to a bisubstrate Measured in Biochemical System Using Plate Reader - 2147-01_Inhibitor_Dose_CherryPick_Activity.; type: functional, Mycobacterium tuberculosis H37Rv
T4 sequence (P9WQ59 whole entry): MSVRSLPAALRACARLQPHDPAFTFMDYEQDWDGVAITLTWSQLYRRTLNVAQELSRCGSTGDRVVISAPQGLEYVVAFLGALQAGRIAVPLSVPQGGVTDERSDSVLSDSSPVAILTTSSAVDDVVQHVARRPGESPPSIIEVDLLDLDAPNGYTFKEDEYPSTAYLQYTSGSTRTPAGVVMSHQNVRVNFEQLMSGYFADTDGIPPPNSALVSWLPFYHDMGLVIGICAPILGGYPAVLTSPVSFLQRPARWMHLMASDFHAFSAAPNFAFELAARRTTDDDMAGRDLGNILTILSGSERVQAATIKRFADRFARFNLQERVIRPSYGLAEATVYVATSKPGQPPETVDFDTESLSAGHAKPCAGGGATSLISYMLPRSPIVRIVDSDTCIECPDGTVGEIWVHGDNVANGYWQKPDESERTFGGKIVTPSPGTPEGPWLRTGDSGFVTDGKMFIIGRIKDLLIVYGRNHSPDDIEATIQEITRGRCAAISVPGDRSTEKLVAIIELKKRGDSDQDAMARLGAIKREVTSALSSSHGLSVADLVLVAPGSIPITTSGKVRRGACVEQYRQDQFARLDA

[20] = target: Nuclear receptor subfamily 0 group B member 1 (Homo sapiens, UniProt P51843); type: functional, cell-based;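 also: HEK293T cells transfected with SF-1 and DAX-1 plus StAR promoter luciferase reporter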
Nuclear receptor subfamily 0 group B member 1, sequence (P51843 whole entry): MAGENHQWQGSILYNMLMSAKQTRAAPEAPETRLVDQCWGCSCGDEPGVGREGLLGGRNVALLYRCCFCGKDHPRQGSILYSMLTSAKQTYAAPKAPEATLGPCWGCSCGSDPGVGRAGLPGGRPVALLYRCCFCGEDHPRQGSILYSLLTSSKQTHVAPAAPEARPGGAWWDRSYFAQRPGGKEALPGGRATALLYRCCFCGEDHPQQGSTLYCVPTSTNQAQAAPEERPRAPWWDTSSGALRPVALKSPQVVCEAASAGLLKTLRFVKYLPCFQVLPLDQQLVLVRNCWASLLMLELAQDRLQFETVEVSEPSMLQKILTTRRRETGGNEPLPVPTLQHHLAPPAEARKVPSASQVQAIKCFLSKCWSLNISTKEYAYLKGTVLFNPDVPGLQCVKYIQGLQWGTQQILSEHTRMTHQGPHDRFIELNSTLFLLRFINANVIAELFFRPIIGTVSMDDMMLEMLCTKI

[21] = target: T5, Tyrosine-protein phosphatase non-receptor type 22 (Homo sapiens, UniProt Q9Y2R2); assay: lymphoid phosphatase LYP inhibitors – biochemical, selectivity assay for STEP inhibitor project, dose response (AID 624241); type: functional
T5 sequence (Q9Y2R2 whole entry): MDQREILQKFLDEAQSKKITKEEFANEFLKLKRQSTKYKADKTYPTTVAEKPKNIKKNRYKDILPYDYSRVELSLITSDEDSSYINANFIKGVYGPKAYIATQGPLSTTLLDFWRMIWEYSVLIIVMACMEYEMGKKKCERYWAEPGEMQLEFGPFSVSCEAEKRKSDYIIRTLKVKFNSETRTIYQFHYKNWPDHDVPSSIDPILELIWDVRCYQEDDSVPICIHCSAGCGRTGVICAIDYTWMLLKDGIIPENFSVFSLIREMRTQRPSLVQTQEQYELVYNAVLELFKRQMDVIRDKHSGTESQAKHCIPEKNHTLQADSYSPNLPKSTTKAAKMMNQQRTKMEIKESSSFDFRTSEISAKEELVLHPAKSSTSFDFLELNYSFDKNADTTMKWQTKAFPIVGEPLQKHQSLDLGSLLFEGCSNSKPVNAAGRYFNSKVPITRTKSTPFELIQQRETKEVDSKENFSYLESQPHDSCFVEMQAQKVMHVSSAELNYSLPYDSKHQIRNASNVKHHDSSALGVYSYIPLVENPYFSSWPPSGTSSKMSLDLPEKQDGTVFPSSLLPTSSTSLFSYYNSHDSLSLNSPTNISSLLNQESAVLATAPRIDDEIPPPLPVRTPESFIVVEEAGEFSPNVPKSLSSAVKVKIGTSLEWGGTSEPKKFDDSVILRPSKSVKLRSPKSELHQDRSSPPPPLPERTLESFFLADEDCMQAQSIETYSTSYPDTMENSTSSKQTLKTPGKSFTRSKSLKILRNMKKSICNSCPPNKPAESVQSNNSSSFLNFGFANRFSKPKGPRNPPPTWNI

[22] = target: Eukaryotic translation initiation factor 4H (Homo sapiens, UniProt Q15056); assay: eIF4H binding inhibition – biochemical, uHTS, fluorescence polarization, translation initiation inhibitor project, primary screen (AID 2012)
[23] = target: Genome polyprotein (dengue virus type 2, UniProt P29990); assay: flavivirus cap methylation enzyme inhibition – biochemical, confirmation dose response, primary screen (AID 588689); type: functional
Genome polyprotein, sequence (P29990 2492-3391 limits assumed): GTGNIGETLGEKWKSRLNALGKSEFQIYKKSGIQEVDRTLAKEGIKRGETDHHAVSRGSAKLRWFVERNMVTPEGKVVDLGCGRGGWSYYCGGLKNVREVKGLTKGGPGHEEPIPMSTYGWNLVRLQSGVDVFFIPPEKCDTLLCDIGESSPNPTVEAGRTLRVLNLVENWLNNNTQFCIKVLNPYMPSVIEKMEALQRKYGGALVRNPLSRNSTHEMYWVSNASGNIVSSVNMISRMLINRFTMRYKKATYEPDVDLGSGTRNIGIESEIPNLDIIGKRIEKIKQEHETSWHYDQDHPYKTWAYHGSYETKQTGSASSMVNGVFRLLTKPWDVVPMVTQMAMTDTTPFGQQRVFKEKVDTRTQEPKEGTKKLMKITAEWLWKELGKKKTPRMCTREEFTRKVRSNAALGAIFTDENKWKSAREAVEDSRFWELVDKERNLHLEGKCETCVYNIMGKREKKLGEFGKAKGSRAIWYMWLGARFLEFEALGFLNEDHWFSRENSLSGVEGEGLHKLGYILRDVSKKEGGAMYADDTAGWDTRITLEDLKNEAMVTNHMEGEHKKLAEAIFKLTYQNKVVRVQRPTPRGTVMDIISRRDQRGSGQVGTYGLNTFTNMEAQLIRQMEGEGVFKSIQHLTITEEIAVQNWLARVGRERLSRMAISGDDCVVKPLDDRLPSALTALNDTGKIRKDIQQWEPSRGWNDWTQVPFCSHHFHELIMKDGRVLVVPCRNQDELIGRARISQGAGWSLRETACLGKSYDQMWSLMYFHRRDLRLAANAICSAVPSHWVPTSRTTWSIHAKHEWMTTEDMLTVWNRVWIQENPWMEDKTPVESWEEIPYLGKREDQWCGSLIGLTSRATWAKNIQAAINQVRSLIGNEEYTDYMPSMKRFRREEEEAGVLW

[24] = target: Polyadenylate-binding protein 1 (Homo sapiens, UniProt P11940); assay: blockers of PABP interaction with poly(A) – biochemical, fluorescence polarization, […] (AID 2014)
Polyadenylate-binding protein 1, sequence (P11940 whole entry): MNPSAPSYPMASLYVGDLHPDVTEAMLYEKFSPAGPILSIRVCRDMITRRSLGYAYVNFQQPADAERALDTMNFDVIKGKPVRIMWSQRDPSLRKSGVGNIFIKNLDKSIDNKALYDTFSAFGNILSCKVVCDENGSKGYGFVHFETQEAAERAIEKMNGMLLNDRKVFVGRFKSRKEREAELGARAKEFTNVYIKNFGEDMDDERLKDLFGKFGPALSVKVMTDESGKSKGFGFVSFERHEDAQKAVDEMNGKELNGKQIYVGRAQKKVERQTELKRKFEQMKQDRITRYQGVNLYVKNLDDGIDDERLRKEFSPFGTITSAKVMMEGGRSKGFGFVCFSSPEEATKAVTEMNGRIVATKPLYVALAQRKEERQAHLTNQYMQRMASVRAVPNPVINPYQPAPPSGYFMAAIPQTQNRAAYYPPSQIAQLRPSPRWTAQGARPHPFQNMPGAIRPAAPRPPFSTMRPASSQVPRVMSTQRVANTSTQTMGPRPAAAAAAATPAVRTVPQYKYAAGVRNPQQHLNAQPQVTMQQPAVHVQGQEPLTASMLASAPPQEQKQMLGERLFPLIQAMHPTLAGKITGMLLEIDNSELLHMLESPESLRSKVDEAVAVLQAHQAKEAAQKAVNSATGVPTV

[25] = target: Tyrosine-protein phosphatase non-receptor type 11 (Homo sapiens, UniProt Q06124); assay: PTPN11 enzyme inhibitors – biochemical, selectivity assay for STEP inhibitor project, dose response (AID 602367); type: functional; conditions: read-out: IC50_Mean
[26] = target: T6, Carboxy-terminal domain RNA polymerase II polypeptide A small phosphatase 1 (Homo sapiens, UniProt Q9GZU7); assay: CTDSP1 inhibitors, concentration-response, biochemical, absorbance readout, ultra-high-throughput screen actives (AID 540297); type: functional
T6 sequence (Q9GZU7 whole entry): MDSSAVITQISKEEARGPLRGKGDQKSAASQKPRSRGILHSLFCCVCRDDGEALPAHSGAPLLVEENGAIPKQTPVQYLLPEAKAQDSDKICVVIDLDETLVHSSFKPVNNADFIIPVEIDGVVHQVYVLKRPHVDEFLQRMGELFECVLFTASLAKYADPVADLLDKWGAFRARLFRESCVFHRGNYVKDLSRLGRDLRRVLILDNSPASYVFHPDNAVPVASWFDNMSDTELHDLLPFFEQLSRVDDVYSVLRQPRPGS

[27] = target: Tyrosine-protein phosphatase non-receptor type 5 (Homo sapiens, UniProt P54829); assay: PTPN5 enzyme inhibition – biochemical, fluorescence intensity, uHTS hits, confirmation (AID 602372); type: functional; conditions: read-out: IC50_Mean
Tyrosine-protein phosphatase non-receptor type 5, sequence (P54829 whole entry): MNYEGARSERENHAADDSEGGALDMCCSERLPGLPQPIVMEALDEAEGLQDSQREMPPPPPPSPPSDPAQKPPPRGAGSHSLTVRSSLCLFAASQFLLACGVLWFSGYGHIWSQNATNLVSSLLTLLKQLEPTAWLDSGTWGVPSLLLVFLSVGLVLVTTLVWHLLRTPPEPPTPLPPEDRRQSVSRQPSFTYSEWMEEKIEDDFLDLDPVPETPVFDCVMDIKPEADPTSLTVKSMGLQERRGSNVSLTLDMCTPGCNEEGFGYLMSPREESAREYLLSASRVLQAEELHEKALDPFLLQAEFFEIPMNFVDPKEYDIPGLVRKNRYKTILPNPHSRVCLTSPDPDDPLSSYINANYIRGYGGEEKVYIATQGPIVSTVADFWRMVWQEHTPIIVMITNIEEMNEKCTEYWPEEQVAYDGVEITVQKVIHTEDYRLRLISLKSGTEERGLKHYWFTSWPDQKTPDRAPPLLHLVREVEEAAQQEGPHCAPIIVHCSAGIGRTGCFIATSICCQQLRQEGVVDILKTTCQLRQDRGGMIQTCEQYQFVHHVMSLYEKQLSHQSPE

[28] = target: Dual specificity protein phosphatase 3 (Homo sapiens, UniProt P51452); assay: VHR phosphatase inhibition, dose response, selectivity assay for STEP inhibitor project, biochemical (AID 602374); type: functional; conditions: read-out: IC50_Mean
Dual specificity protein phosphatase 3, sequence (P51452 whole entry): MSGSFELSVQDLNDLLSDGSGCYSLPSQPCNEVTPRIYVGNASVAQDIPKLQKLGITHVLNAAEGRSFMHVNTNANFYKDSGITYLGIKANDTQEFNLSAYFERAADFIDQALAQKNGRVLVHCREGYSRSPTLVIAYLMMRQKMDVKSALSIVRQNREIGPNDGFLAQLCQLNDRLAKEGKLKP

[29] = system: Vero; assay: cells; type: functional; conditions: Chlorocebus sabaeus
[30] = target: Arf-GAP with SH3 domain, ANK repeat and PH domain-containing protein 1 (Homo sapiens, UniProt Q9ULH1); type: functional;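 also: biochemical fluorescence polarization dose–response screen measuring inhibition of ASAP1; ASAP1 GAP domain stimulating GTP hydrolysis by truncated human ARF1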

Nonstructural protein 1, sequence (Q194T2 whole entry): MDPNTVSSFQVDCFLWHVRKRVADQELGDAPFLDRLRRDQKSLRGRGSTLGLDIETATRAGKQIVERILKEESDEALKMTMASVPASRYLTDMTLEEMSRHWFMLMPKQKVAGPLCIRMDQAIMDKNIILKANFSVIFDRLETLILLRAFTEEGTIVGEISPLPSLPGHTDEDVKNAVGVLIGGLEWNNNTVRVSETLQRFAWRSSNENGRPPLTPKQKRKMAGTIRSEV

Nc1nc(-c2ccccc2)c(N=Nc2ccccc2Cl)s1
IC50 [1]: 9.93 µM (active)
EC50 [2]: 4.78 µM (active)
IC50 [3]: 28 µM (inactive)
IC50 [4]: 8.65 µM (active)
IC50 [5]: > 69.5 µM (inactive)
EC50 [6]: > 160 µM (inactive)

Cc1nc2ccc(NC(=O)[C@@H](NC(=O)c3c(F)cccc3F)C(C)C)cc2s1
EC50 [7]: > 20 µM (inactive)

COc1ccc(OC)c2sc(N(CCN(C)C)C(=O)c3ccc4ccccc4c3)nc12
AC50 [8]: 58.4 µM (active)
AC50 [9]: 32.7 µM (active)
AC50 [10]: 10.7 µM (active)

O=C(NNS(=O)(=O)c1ccc2ccccc2c1)c1cc(-c2ccccn2)nc2ccccc12
IC50 [11]: 28.9 µM (active)
IC50 [12]: 11.7 µM (active)

CCNS(=O)(=O)c1ccc(Br)c(C(=O)OC(C)C(=O)NCC2CCCCC2)c1 (stereo not given)
AC50 [13]: 31.7 µM (active)

Cc1cccc(N=[N+]([O-])c2cccc(C)n2)n1
AC50 [14]: 34.5 µM (active)

Cc1ccc2oc(C(=O)N3CCC(O)(c4ccccc4)CC3)c(C)c2c1
IC50 [15]: > 80 µM (inactive)

Cc1ccc2c(c1)cc(CN(Cc1ccco1)C(=O)N1CCOCC1)c1nnnn12
EC50 [16]: > 91.2 µM (inactive)
EC50 [17]: > 91.2 µM (inactive)

CCc1cccc2c(C(=O)CN3C(=O)N(C)C4(CCCCC4)C3=O)c[nH]c12
IC50 [18]: > 67.5 µM (inactive)
AC50 [19]: > 100 µM (inactive)
IC50 [20]: > 67.5 µM (inactive)

COc1ccc(/C=N/NC2=NC(=O)C(CC(=O)O)S2)cc1OCc1ccc(Cl)cc1Cl (stereo not given)
IC50 [21]: 33.8 µM (inactive)
IC50 [22]: 14.7 µM (active)
IC50 [23]: 59.4 µM (active)
IC50 [24]: 64.3 µM (active)
IC50 [25]: 4.42 µM (active)
IC50 [26]: 4.48 µM (active)
IC50 [27]: 9.72 µM (active)
IC50 [28]: 4.79 µM (active)

COCCn1cnc2c(c1=O)c1nc3ccccc3nc1n2/N=C/c1ccc(OC)c(OC)c1
CC50 [29]: 23.5 µM (active)
IC50 [30]: 41.7 µM (inactive)
